In PubChem BioAssay AID1259426 (Fisher Drug Discovery Resource Center, 2018):
Activity calls are given as the source filed them.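 How the source made its calls: active means EC50 under a set limit in control cells lacking the mosquito receptor, marking a fluorescence artifact; inactive means the rest.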

target: HEK293 Galpha15/GCaMP6s without NPYLR7, calcium fluorescence; assay: nonspecific activation in parental Galpha15/GCaMP6s cells – cell-based, HEK293 lacking NPYLR7, counter-screen for mosquito NPYLR7 agonist project, dose response (AID 1259426);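 further: potency for a rise in fluorescence over baseline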

Row | Structure (SMILES) | EC50
1 | COc1cc(C=C2N=C(c3ccc4c(c3)OCO4)OC2=O)cc2c1OCCO2 | > 20 µM (inactive)
2 | CCOC(=O)C1CCCN(c2nc3nonc3nc2N2CCSCC2)C1 (stereo unspecified) | > 20 µM (inactive)
3 | CCCn1c2c(c(=O)n(C)c1=O)C(=O)C(=Cc1ccc(N(C)C)cc1)N2 | 2.17 µM
4 | CCN1CCN(C2=CC3=CC(=C(C#N)C#N)CCC3CC2)CC1 (stereo unspecified) | < 0.039 µM
5 | Cc1cc(O)c(CN2CCN(CCO)CC2)c2c1C(=O)/C(=C/c1cc3ccccc3o1)O2 | 7.38 µM
6 | COc1cc(C=C2SC(=S)NC2=O)cc(Br)c1O | > 20 µM (inactive)
7 | COC(=O)c1cc(N)c(/C=C/c2cccs2)s1 | 0.577 µM
8 | CCOc1cc(/C=C(\C#N)c2nc3ncc(Br)cc3[nH]2)ccc1O | 2.3 µM
9 | O=C(O)CCN1C(=O)/C(=C/c2ccc(O)cc2)SC1=S | 2.69 µM
10 | O=c1oc2c(CN3CCN(CCO)CC3)c(O)ccc2cc1-c1nc2ccccc2s1 | < 0.039 µM
11 | Cc1ccc(Nc2nc(Nc3cccc(F)c3)nc3nccnc23)c(C)c1 | > 20 µM (inactive)
12 | COCCN=Cc1cc(I)cc(I)c1O | > 20 µM (inactive)
13 | COc1cc(C=CC(=O)c2ccc3c(c2)OCCO3)cc(Br)c1O | 0.151 µM
14 | CCOC(=O)c1c(-c2ccccc2)csc1N=Cc1nc(-c2ccco2)oc1O | > 20 µM (inactive)
15 | CCN1CC=C2C(C#N)C(=N)C(C#N)(C#N)C(c3cccs3)C2C1 (stereo unspecified) | > 20 µM (inactive)
16 | CCOC(=O)N1CCN(c2ccc(/C=C(\C#N)c3nc4ccccc4[nH]3)o2)CC1 | > 20 µM (inactive)
17 | COCCCNCc1c(-c2ccc(F)cc2)noc1N1CCOCC1 | > 20 µM (inactive)
18 | COc1cc(NC(=O)N2CC(=O)N3CCc4c(F)cccc4C3C2)cc(OC)c1OC (stereo unspecified) | > 20 µM (inactive)
19 | O=C1CCCC2Nc3ncnc(Cl)c3OC12 (stereo unspecified) | 6.38 µM
20 | Cc1ccc(NC2C=CS(=O)(=O)C2)cc1C (stereo unspecified) | > 20 µM (inactive)
21 | CCC1CN(C(=O)c2cc(C(C)C)on2)CCC(=O)N1Cc1ccccc1 (stereo unspecified) | > 20 µM (inactive)
22 | Clc1ccc(-c2noc3c2CN(CCn2cc(Cl)cn2)CC3)cc1 | 15.4 µM
23 | CN(Cc1ccccc1)c1cc(Oc2cccc(Cl)c2)ncn1 | > 20 µM (inactive)
24 | CC(C)NC[C@@H](O)c1ccc(O)c(O)c1 | 1.37 µM
25 | N#CC1C(=N)SC(=N)C(C#N)C1c1cccc(F)c1 (stereo unspecified) | 7.03 µM
26 | O=C(N=Nc1c(O)[nH]c2ccc(Br)cc12)c1ccccc1Cl | > 20 µM (inactive)

Row | Structure (SMILES) | EC50
27 | N#CC1C(=N)Oc2cc(N)ccc2C1c1c(Cl)cccc1Cl (stereo unspecified) | > 20 µM (inactive)
28 | Cc1ccc(C)c(C2C(C#N)C(=N)SC(=N)C2C#N)c1 (stereo unspecified) | 11.9 µM
29 | N#CC1C(=N)SC(=N)C(C#N)C1c1ccccc1F (stereo unspecified) | 10.2 µM
30 | O=C1OC2(c3cc(Br)c(O)cc3Oc3c2cc(Br)c(O)[c]3[Hg])c2ccccc21 (stereo unspecified) | < 0.039 µM
31 | O=C1SC(Nc2ccc(Br)cc2)C(=O)N1c1ccccc1 (stereo unspecified) | 17.9 µM
32 | CS(=O)(=O)c1ccc(-c2cccc3c2OC(CNC(=O)c2cc[n+]([O-])cc2)C3)cc1 (stereo unspecified) | > 20 µM (inactive)
33 | COc1ccc(CC2c3cc(OC)c(OC)cc3CC[N+]2(C)CCC(=O)OCCCCCOC(=O)CC[N+]2(C)CCc3cc(OC)c(OC)cc3C2Cc2ccc(OC)c(OC)c2)cc1OC (stereo unspecified) | > 20 µM (inactive)
34 | O=C1c2ccccc2-c2nn(CN3CCN(c4ccccc4)CC3)c3cccc1c23 | > 20 µM (inactive)
35 | Cc1cccc(N2C(=O)NC(=O)/C(=C/c3cn(C)c4ccccc34)C2=O)c1 | > 20 µM (inactive)
36 | CC(C(=O)O)N1C(=O)/C(=C/c2ccc(N(C)C)cc2)SC1=S (stereo unspecified) | 7.74 µM
37 | Nc1nc(Cl)nc2c1ncn2[C@@H]1O[C@H](CO)[C@@H](O)[C@H]1O | 1.15 µM
38 | COc1ccc(NC(=O)C2C=CCN2)cc1NC(=O)c1ccco1 (stereo unspecified) | > 20 µM (inactive)
39 | COc1ccc(Cl)cc1NC(=O)/C(C#N)=C/c1coc2ccc(C)cc2c1=O | > 20 µM (inactive)
40 | CCOC(=O)c1c(-c2ccccc2)csc1N=Cc1nc(-c2ccccc2)oc1O | > 20 µM (inactive)
41 | CSc1ccc(C2CC(c3ccc(Cl)cc3)=Nc3ncnn32)cc1 (stereo unspecified) | > 20 µM (inactive)
42 | CNC[C@H](O)c1ccc(O)c(O)c1 | 0.039 µM
43 | CC[n+]1c(/C=C/C=C2/N(C)c3ccccc3C2(C)C)sc2ccccc21 | > 20 µM (inactive)
44 | CC(C)OC(=O)C(C(=O)C(F)(F)F)c1cc(NS(=O)(=O)c2ccc(Cl)cc2)ccc1O (stereo unspecified) | > 20 µM (inactive)
45 | O=C1c2cccc3c(Nc4ccccc4)ccc(c23)C(=O)N1c1ccccc1 | 5.39 µM
46 | COc1ccc(C2=NN(C(=O)CN3CCOCC3)C(c3nc4ccccc4[nH]3)C2)cc1 (stereo unspecified) | > 20 µM (inactive)
47 | O=C(COc1ccccc1)N1CCCC(CNS(=O)(=O)c2cccs2)C1 (stereo unspecified) | > 20 µM (inactive)
48 | C(/C=C/CC=Nc1ccccc1)=Nc1ccccc1 | 14.5 µM
49 | CC(=O)Oc1c(/C=C(\C#N)C(N)=O)[nH]c2ccccc12 | 6.22 µM
50 | NS(=O)(=O)c1ccc(NC(NC(=O)c2ccco2)C(=O)c2ccc(Cl)cc2)cc1 (stereo unspecified) | > 20 µM (inactive)
51 | O=C1C(=Cc2ccc(OC(F)F)cc2OC(F)F)Oc2cc(O)ccc21 | > 20 µM (inactive)
52 | CN(C)/C=C1\C(=O)N(c2c(Cl)cccc2Cl)c2cc(C=C(C#N)C#N)ccc21 | 18.4 µM

Row | Structure (SMILES) | EC50
53 | Cc1cc2nc3c(=O)[nH]c(=O)nc-3n(CC(O)C(O)C(O)CO)c2cc1C (stereo unspecified) | < 0.039 µM
54 | COc1ccc(/C=C2\Oc3c(ccc4c3CN(Cc3ccncc3)CO4)C2=O)cc1OC | 9.55 µM
55 | COc1cc(/C=C2\SC(=S)N(C(C)C(=O)O)C2=O)ccc1O (stereo unspecified) | 3.02 µM
56 | CC1=NCCc2c1[nH]c1cc(O)ccc21 | 0.419 µM
57 | COc1ccc(C(=O)N(Cc2ccccc2)C2CCC(NC(=O)C3CCN(C(=O)c4ccccc4Cl)CC3)CC2)cc1 (stereo unspecified) | > 20 µM (inactive)
58 | CC(C)NC(=O)C(C)N1CCc2onc(-c3ccc(C(F)(F)F)cc3)c2C1 (stereo unspecified) | 8.58 µM
59 | N#CC1C(=N)Oc2cc(O)ccc2C1c1ccccc1I (stereo unspecified) | 7.42 µM
60 | Cc1ccc(CN(Cc2ccc(F)cc2)C(=O)CNCCN2CCOCC2)s1 | > 20 µM (inactive)
61 | COc1ccc(-n2ccnc2-c2ccc(C#CC(C)(C)O)cc2)cn1 | > 20 µM (inactive)
62 | COc1ccc(NC[C@@H]2C=C(C)[C@H](Cc3nnc(C)o3)C[C@H]2C(C)C)cn1 | 13.3 µM
63 | CC(=O)NN1C(=O)/C(=C\c2ccc(O)cc2)SC1=S | 3.61 µM
64 | N#CC(C#N)=C1C=C2C=C(N3CCc4ccccc4C3)CCC2CC1 (stereo unspecified) | > 20 µM (inactive)
65 | CCN1CCc2c(sc(NC(=O)c3ccccc3)c2-c2nc3ccccc3s2)C1 | > 20 µM (inactive)
66 | CCn1c(O)c(C=Nc2c(C#N)c(C)c(C)n2C2CCCCC2)c(=O)n(CC)c1=S | 1.31 µM
67 | Cc1cc2nc3c(=O)[nH]c(=O)nc-3n(C[C@H](O)[C@H](O)[C@H](O)CO)c2cc1C | 0.508 µM
68 | O=C1c2cccc3c(NCCO)ccc(c23)C(=O)N1CCO | 0.0846 µM
69 | N#CC1C(=N)SC(=N)C(C#N)C1c1cccc(O)c1 (stereo unspecified) | 10.1 µM
70 | Cc1cc(C)c2cc3c(cc2n1)CCN3CC(O)CO (stereo unspecified) | 2.78 µM
71 | CCCC1CCC(C(=O)Nc2nnc(SCC)s2)CC1 (stereo unspecified) | > 20 µM (inactive)
72 | CCN(CC)c1ccc(/C=C2/SC(=S)N(CC(=O)O)C2=O)cc1 | 0.355 µM
73 | N#CC(C#N)=C1C=C2C=C(N3CCCC3)CCC2CC1 (stereo unspecified) | < 17.7 µM
74 | CCN1C(=Cc2ccc3cc(C)ccc3[n+]2CC)Sc2ccccc21 | 0.911 µM
75 | OC=c1ccc2cccc3nc(C(F)(F)F)nc1c23 | 11.2 µM
76 | CN1C(=S)N(c2ccc3c(c2)CCC3)C(=O)/C1=C\c1ccncc1 | > 20 µM (inactive)
